Assay results reported in PMC5845353, “The selective cathepsin K inhibitor MIV-711 attenuates joint pathology in experimental animal models of osteoarthritis” (Journal of Translational Medicine, 2018).
Marks after values point to notes of the source that are not given here.

Legend:
[1] = test system: dogs subjected to partial medial meniscectomy; experiment: Dog partial medial meniscectomy study, osteophyte measurement and grades; type: in vivo
Experimental: Osteophytes for each compartment were measured (basal endochondral ossification to surface of cartilage cap) and severity grades assigned according to the following: […]

[2] = test system: rabbits subjected to anterior cruciate ligament transection (ACLT); experiment: Rabbit ACLT study, µCT of subchondral bone plate; type: in vivo
Source text: The animals were acquired following review and approval by the Institutional Animal Care and Use Committee (IACUC) at Numira (Salt Lake City, UT). The protocol was also reviewed and approved by the IACUC at Ibex Preclinical Research Inc. (Logan, UT). Male, New Zealand White rabbits (n = 32) were purchased from the Western Oregon Rabbit Co. (Philomath, OR). The animals were approximately 9 months old, weighed 3.7–4.5 kg at the start of the experiment and were randomized into four treatment groups based on body weight.
Pre-operative butorphanol (0.5–1.0 mg/kg, i.m.) for analgesia and glycopyrrolate (~ 0.1 mg/kg i.m.) were administered up to 15 min prior to induction. Anesthesia was induced by a mixture of ketamine (20–40 mg/kg, i.m.) and xylazine (5–10 mg/kg, i.m.), followed by placement of an endotracheal tube. General anesthesia was maintained with isoflurane. Perioperative cefazolin (40 mg/kg, i.v.) was administered, and […] (0.2 mg/kg, i.v.) was administered to reverse the effects of xylazine after endotracheal intubation was complete. A fentanyl patch (25 µg/h) was placed on a clipped area of the skin to provide post-operative analgesia. An incision of 1.5–2.5 cm was made in the skin over the medial side of the right knee under aseptic conditions. The patella was dislocated laterally and the knee placed in full flexion. The anterior cruciate ligament (ACL) was visualized and transected with an appropriate blade. In sham animals, the ACL was visualized but not transected. The joint was irrigated with sterile saline and closed. The muscle and skin were closed with suture and/or surgical glue. Butorphanol (0.5–1 mg/kg, i.m.) was administered after extubation to provide supplemental analgesia. The animals were then individually housed in stainless steel or plastic cages.
Starting 1 week after sham operation or ACLT, animals were dosed daily for 7 weeks by oral gavage with either MIV-711 (synthesized by Medivir and given as a suspension in 1% Methocel A4C in water) or vehicle (1% Methocel A4C in water) at a dose volume of 4 mL/kg. The four treatment groups (n = 7 in each group) were: (1) sham + vehicle; (2) ACLT + vehicle; (3) ACLT + MIV-711, 30 µmol/kg (low dose) and (4) ACLT + MIV-711, 100 µmol/kg (high dose).
Femora and tibias from all animals were subjected to µCT scanning without and with contrast reagent, to visualize bone and cartilage, respectively. Samples were scanned on a high-resolution, volumetric µCT scanner (μCT40, ScanCo Medical, Zurich, CH). The image data was acquired with the following parameters: 36 μm isotropic voxel resolution at 300 ms exposure time, 2000 views and 1 frame per view. Each sample was scanned twice, once for acquiring bone data and once for soft tissue data. After the bone scans, the knees were stained using hexabrix for contrast-enhanced imaging of the cartilage. The µCT-generated DICOM files were used to analyze the samples and to create volume renderings of the regions of interest (ROI). The raw data files were converted into a file format compatible with the segmentation software VHLab (Numira). VHLab was used for segmenting out the regions of interest (osteophyte, cartilage, and subchondral bone) for the femur and tibia of each sample. A region spanning 9 mm of the articulating surface of the femur and 6.5 mm of the tibia was selected for segmenting out the cartilage and subchondral bone in the anterior–posterior direction. After the segmentation process, the voxel count associated with each of the regions of interest was calculated using VHLab. The voxel count was then multiplied by the cubic voxel resolution to obtain volume measurements for the different ROI. Cartilage thickness was calculated using SCIRun (Scientific Computing and Imaging Institute, University of Utah). The distance from the bone to the outer surface of the articulating cartilage was calculated. An image was generated that translates the distances into a color map for viewing the thickness along the length of the cartilage. […]

C#C[C@@H]1CN(C(=O)[C@H](CC(C)C)NC(=O)c2ccc(-c3nc(N4CCN(C)CC4)sc3F)cc2)[C@@H]2C(=O)CO[C@H]12 [MIV-711]
Osteophyte Score ([1]; MIV-711 group mean): 0.00 | Osteophyte Measure ([1]; individual dogs of MIV-711 group): 0 µm | Osteophyte Score ([1]; individual dogs of MIV-711 group, mean of 3 sections): 0.00 | Subchondral bone plate Thickness, Lateral ([2]; Femur, high dose 100 µmol/kg): 321 ± 11 µm | Subchondral bone plate Thickness, Medial ([2]; Femur, high dose 100 µmol/kg): 388 ± 9 µm | Subchondral bone plate Thickness, Total ([2]; Femur, high dose 100 µmol/kg): 353 ± 8 µm | Subchondral bone plate Volume, Lateral ([2]; Femur, high dose 100 µmol/kg): 25.7 ± 1.2* mm^3 | Subchondral bone plate Volume, Medial ([2]; Femur, high dose 100 µmol/kg): 29.9 ± 1.0 mm^3 | Subchondral bone plate Volume, Total ([2]; Femur, high dose 100 µmol/kg): 55.6 ± 2.0* mm^3 | Subchondral bone plate Thickness, Lateral ([2]; Femur, low dose 30 µmol/kg): 316 ± 10 µm | Subchondral bone plate Thickness, Medial ([2]; Femur, low dose 30 µmol/kg): 380 ± 13 µm | Subchondral bone plate Thickness, Total ([2]; Femur, low dose 30 µmol/kg): 347 ± 10 µm | Subchondral bone plate Volume, Lateral ([2]; Femur, low dose 30 µmol/kg): 25.0 ± 0.6* mm^3 | Subchondral bone plate Volume, Medial ([2]; Femur, low dose 30 µmol/kg): 29.4 ± 0.8 mm^3 | Subchondral bone plate Volume, Total ([2]; Femur, low dose 30 µmol/kg): 54.4 ± 0.8* mm^3 | Subchondral bone plate Thickness, Lateral ([2]; Tibia, high dose 100 µmol/kg): 353 ± 12 µm | Subchondral bone plate Thickness, Medial ([2]; Tibia, high dose 100 µmol/kg): 462 ± 13 µm | Subchondral bone plate Thickness, Total ([2]; Tibia, high dose 100 µmol/kg): 401 ± 8 µm | Subchondral bone plate Volume, Lateral ([2]; Tibia, high dose 100 µmol/kg): 20.7 ± 1.0* mm^3 | Subchondral bone plate Volume, Medial ([2]; Tibia, high dose 100 µmol/kg): 20.6 ± 0.5 mm^3 | Subchondral bone plate Volume, Total ([2]; Tibia, high dose 100 µmol/kg): 41.2 ± 0.9* mm^3 | Subchondral bone plate Thickness, Lateral ([2]; Tibia, low dose 30 µmol/kg): 326 ± 18 µm | Subchondral bone plate Thickness, Medial ([2]; Tibia, low dose 30 µmol/kg): 452 ± 15 µm | Subchondral bone plate Thickness, Total ([2]; Tibia, low dose 30 µmol/kg): 383 ± 15 µm | Subchondral bone plate Volume, Lateral ([2]; Tibia, low dose 30 µmol/kg): 18.5 ± 1.3* mm^3 | Subchondral bone plate Volume, Medial ([2]; Tibia, low dose 30 µmol/kg): 20.6 ± 0.8 mm^3 | Subchondral bone plate Volume, Total ([2]; Tibia, low dose 30 µmol/kg): 39.1 ± 2.0* mm^3 | femur subchondral bone plate total thickness, difference vs. sham ([2]; low dose 30 µmol/kg): 0% | tibia subchondral bone plate total thickness, difference vs. sham ([2]; low dose 30 µmol/kg): 0%
